This note sets out measurements from patent US20090239841A1, “Diaryl Ureas as CB1 Antagonists” (priority 2004, published 2009).

The target in the first assay is T1, hCB1 (Homo sapiens, UniProt P21554).
T1 construct: made in house; host or cells: Sf9 insect cells (baculovirus), P2 membranes
T1 sequence (P21554 whole entry): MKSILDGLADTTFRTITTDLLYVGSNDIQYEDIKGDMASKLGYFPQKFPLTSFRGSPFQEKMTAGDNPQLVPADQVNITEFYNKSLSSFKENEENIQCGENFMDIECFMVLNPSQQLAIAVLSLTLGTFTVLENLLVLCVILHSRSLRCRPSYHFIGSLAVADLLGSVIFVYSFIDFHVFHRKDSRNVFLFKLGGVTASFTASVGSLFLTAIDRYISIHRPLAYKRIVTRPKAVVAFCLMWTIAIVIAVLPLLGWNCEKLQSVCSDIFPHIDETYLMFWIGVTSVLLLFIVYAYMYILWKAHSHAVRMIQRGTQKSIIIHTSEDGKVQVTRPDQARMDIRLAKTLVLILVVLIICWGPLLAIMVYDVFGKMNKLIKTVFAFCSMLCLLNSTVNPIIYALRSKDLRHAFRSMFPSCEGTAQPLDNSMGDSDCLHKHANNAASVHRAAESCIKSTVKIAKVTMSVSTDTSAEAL
Kind of assay: Agonist-induced GTP binding (GTPγ35S) assay at CB1, Example 8. Particulars: IC50 at CB1, determined as described in Example 8; read-out: IC50. In kind it is biochemical. The method in brief: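 Membranes from Sf9 cells co-expressing hCB1 and heterotrimeric G-protein (10 μg protein) in Tris pH 7.4 buffer with 5 μM GDP. Test compounds (10^−10–10^−5 M) competed against 1 nM CP55,940 with […] GTPγ35S, 60 min at room temperature. Filter-bound radioactivity by scintillation, expressed as percent above basal.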
The term IC50 denotes the concentration that inhibits the measured activity by half. `COCc1cccc(NC(=O)Nc2ccc(C(C)C)cc2)c1` [Compound 571, 1-(4-isopropylphenyl)-3-[3-(methoxymethyl)phenyl]urea]: the IC50 was below 2000 nM.
On the same count and under the same terms, in the case of `Cc1ccc(NC(=O)Nc2ccc(OC(C)C)cc2)cc1F` [Compound 692, 1-(3-fluoro-4-methylphenyl)-3-(4-isopropoxyphenyl)urea] it was below 2000 nM.
Regarding `CCCOc1ccc(NC(=O)Nc2cccc(C(=O)OCC)c2)cc1` [Compound 671, ethyl 3-({[(4-propoxyphenyl)amino]carbonyl}amino)benzoate], the IC50 is below 2000 nM.
Still for that read-out and setting: in the case of `Cc1ccc(NC(=O)Nc2ccc(OCC#N)cc2)cc1F` [Compound 730, 1-[4-(cyanomethoxy)phenyl]-3-(3-fluoro-4-methylphenyl)urea] it was below 2000 nM.
For the molecule `CCOc1ccc(NC(=O)Nc2ccc(F)c(C)c2)cc1` [Compound 617, 1-(4-ethoxyphenyl)-3-(4-fluoro-3-methylphenyl)urea], the IC50 was below 2000 nM.
`CCc1ccc(NC(=O)Nc2cccc(Cl)c2)cc1` [Compound 330, 1-(3-chlorophenyl)-3-(4-ethylphenyl)urea]: the IC50 was below 2000 nM.
Turning to `Cc1ccc(NC(=O)Nc2cccc(O)c2)cc1F` [Compound 759, 1-(3-fluoro-4-methylphenyl)-3-(3-hydroxyphenyl)urea], the IC50 is below 2000 nM.
Still for that read-out and setting: the figure for `O=C(Nc1ccc(F)c(F)c1)Nc1ccc2c(c1)CCC2` [Compound 775, 1-(3,4-difluorophenyl)-3-(2,3-dihydro-1H-inden-5-yl)urea] is below 2000 nM; for `CC(=O)c1cccc(NC(=O)Nc2cccc(OC(F)F)c2)c1` [Compound 425, 1-(3-acetylphenyl)-3-[3-(difluoromethoxy)phenyl]urea] it is below 2000 nM; for `CCOc1cccc(NC(=O)Nc2ccc(Cl)cc2)c1` [Compound 386, 1-(4-chlorophenyl)-3-(3-ethoxyphenyl)urea] it is below 2000 nM.
On to `COC(=O)c1cccc(NC(=O)Nc2ccc(Cl)cc2)c1` [Compound 647, methyl 3-({[(4-chlorophenyl)amino]carbonyl}amino)benzoate], for which the IC50 is below 2000 nM.
For the molecule `Cc1ccc(NC(=O)Nc2cccc(F)c2)cc1Cl` [Compound 433, 1-(3-chloro-4-methylphenyl)-3-(3-fluorophenyl)urea], the IC50 is below 2000 nM.
Still for that read-out and setting: the figure for `COC(=O)c1cccc(NC(=O)Nc2cccc(OC(F)F)c2)c1` [Compound 676, methyl 3-[({[3-(difluoromethoxy)phenyl]amino}carbonyl)amino]benzoate] is below 2000 nM.
Still for that read-out and setting: in the case of `Cn1nnnc1-c1cccc(NC(=O)Nc2ccc(Cn3ccnn3)cc2)c1` [Compound 794, N-[3-(1-methyl-1H-tetrazol-5-yl)phenyl]-N′-[4-(1H-1,2,3-triazol-1-ylmethyl)phenyl]urea] it was below 2000 nM; in that of `CCOc1ccc(NC(=O)Nc2cccc([N+](=O)[O-])c2)cc1` [Compound 559, 1-(4-ethoxyphenyl)-3-(3-nitrophenyl)urea], below 2000 nM.
The same measure, in the same setting: the figure for `CCOC(=O)c1cccc(NC(=O)Nc2ccc(S(C)(=O)=O)cc2)c1` [Compound 723, ethyl 3-[({[4-(methylsulfonyl)phenyl]amino}carbonyl)amino] benzoate] is below 2000 nM.
With `CCCc1ccc(NC(=O)Nc2cccc(C(=O)OC)c2)cc1` [Compound 650, methyl 3-({[(4-propylphenyl)amino]carbonyl}amino)benzoate], the IC50 was below 2000 nM.
On the same count and under the same terms, in the case of `O=C(Nc1ccccc1)Nc1ccc(N2CCCCC2)cc1` [Compound 321, 1-phenyl-3-(4-piperidin-1-ylphenyl)urea] it was below 2000 nM; in that of `Cc1cc(C)cc(NC(=O)Nc2cccc(OC(C)C)c2)c1` [Compound 707, 1-(3,5-dimethylphenyl)-3-(3-isopropoxyphenyl)urea], below 2000 nM; in that of `CCc1ccc(NC(=O)Nc2cccc([N+](=O)[O-])c2)cc1` [Compound 527, 1-(4-ethylphenyl)-3-(3-nitrophenyl)urea], below 2000 nM.
The same measure, in the same setting: in the case of `CCc1ccc(NC(=O)Nc2ccc(C)cc2)cc1` [Compound 290, N-(4-ethylphenyl)-N′-(4-methylphenyl)urea] it was below 2000 nM; in that of `CC(C)Oc1cccc(NC(=O)Nc2ccc(F)c(F)c2)c1` [Compound 690, 1-(3,4-difluorophenyl)-3-(3-isopropoxyphenyl)urea], below 2000 nM; in that of `Cc1ccc(NC(=O)Nc2ccccc2)cc1Cl` [Compound 435, 1-(3-chloro-4-methylphenyl)-3-phenylurea], below 2000 nM.
On the same count and under the same terms, the figure for `CCCOc1ccc(NC(=O)Nc2cccc(Cl)c2)cc1` [Compound 397, 1-(3-chlorophenyl)-3-(4-propoxyphenyl)urea] is below 2000 nM; for `CCOc1cccc(NC(=O)Nc2ccc(F)c(F)c2)c1` [Compound 683, 1-(3,4-difluorophenyl)-3-(3-ethoxyphenyl)urea] it is below 2000 nM.
Regarding `CC(=O)c1cccc(NC(=O)Nc2ccc(C(C)C)cc2)c1` [Compound 347, 1-(3-acetylphenyl)-3-(4-isopropylphenyl)urea], the IC50 is below 2000 nM.

The same assay, now with this note: Table I; IC50 at CB1, GTP binding with 1 nM CP55,940; read-out: IC50.
Turning to `CC(=O)c1cccc(NC(=O)Nc2ccc(OC(F)F)cc2)c1` [Compound 12, N-(3-acetylphenyl)-N′-[4-(difluoromethoxy)phenyl]urea], the IC50 was below 2000 nM.
Same read-out and setting: the figure for `CCc1ccc(NC(=O)Nc2cccc(OC)c2)cc1` [Compound 57, N-(4-ethylphenyl)-N′-(3-methoxyphenyl)urea] is below 2000 nM; for `CCCc1ccc(NC(=O)Nc2ccccc2)cc1` [Compound 45, N-phenyl-N′-(4-propylphenyl)urea] it is below 2000 nM.

Staying with this assay, now noted: Table II; IC50 at CB1, GTP binding with 1 nM CP55,940; read-out: IC50.
In the case of `O=C(Nc1ccc(OC(F)F)cc1)Nc1ccc2c(c1)OC(=O)C2` [Compound 135, N-[4-(difluoromethoxy)phenyl]-N′-(2-oxo-2,3-dihydro-1-benzofuran-6-yl)urea], the IC50 is below 2000 nM.
Still for that read-out and setting: the figure for `CC(C)Oc1ccc(NC(=O)Nc2ccc(F)cc2)cc1` [Compound 216, N-(4-fluorophenyl)-N′-(4-isopropoxyphenyl)urea] is below 2000 nM.
Still for that read-out and setting: the figure for `COc1ncc(C(F)(F)F)c(-c2cccc(NC(=O)Nc3ccc(OC(F)F)cc3)c2)n1` [Compound 119, N-[4-(difluoromethoxy)phenyl]-N′-{3-[2-methoxy-5-(trifluoromethyl)pyrimidin-4-yl]phenyl}urea] is below 2000 nM; for `CCOc1ccc(NC(=O)Nc2cccc(CC)c2)cc1` [Compound 234, N-(4-ethoxyphenyl)-N′-(3-ethylphenyl)urea] it is below 2000 nM.
Same read-out and setting: in the case of `O=C(Nc1ccc(OC(F)F)cc1)Nc1cccc(Oc2ncccn2)c1` [Compound 108, N-[4-(difluoromethoxy)phenyl]-N′-[3-(pyrimidin-2-yloxy)phenyl]urea] it was below 2000 nM; in that of `Cc1ccccc1NC(=O)Nc1cccc(OC(F)F)c1` [Compound 226], below 2000 nM.
On to `CCCc1ccc(NC(=O)Nc2cccc(C#N)c2)cc1` [Compound 198, N-(3-cyanophenyl)-N′-(4-propylphenyl)urea], for which the half-inhibitory concentration (IC50) is below 2000 nM.
As to `Cc1ccc(NC(=O)Nc2ccc(C)cc2)cc1` [Compound 171, N,N′-bis(4-methylphenyl)urea], the IC50 is below 2000 nM.
Turning to `O=C(Nc1ccc(OC(F)F)cc1)Nc1ccc(-n2cnc(Cl)c2Cl)cc1` [Compound 82, N-[4-(4,5-dichloro-1H-imidazol-1-yl)phenyl]-N′-[4-(difluoromethoxy)phenyl]urea], the IC50 is below 2000 nM.
